According to patent US8017652B2, “Activators of peroxisome proliferator-activated receptors” (Kowa Company Ltd., priority 2000, dated 2011):

Assays:
PPAR α mRNA = test: Expression of PPAR α mRNA in human cell line (RT-PCR); type: cell-based; conditions: Caco-2 cells, serum-free medium, 10 μM, 0-5 hours after addition, FIG. 1
Method: (§1) Caco-2 cells (derived from colon cancer) as a human cell line were cultured at 37° C. in RPMI-1640 medium containing 10% fetal calf serum in the presence of 5% C02. The medium was then replaced with serum-free RPMI-1640 medium and the cells were cultured for 48 hours. In order to examine the effect of NIK-333, a solution of NIK-333 in ethanol was added at a final concentration of 10 μM. At 0, 0.5, 1, 2 and 5 hours after the addition, RNA was extracted to observe. mRNA for PPAR α, PPAR γ1 and PPAR γ2 by the RT-PCR method.

PPAR γ1 mRNA = test: Expression of PPAR γ1 mRNA in human cell line (RT-PCR); type: cell-based; conditions: Caco-2 cells, serum-free medium, 10 μM, 0-5 hours after addition, FIG. 2
Method: as §1

PPAR γ2 mRNA = test: Expression of PPAR γ2 mRNA in human cell line (RT-PCR); type: cell-based; conditions: Caco-2 cells, serum-free medium, 10 μM, 0-5 hours after addition
Method: as §1

PPAR α = molecular target: T1, PPAR α (Homo sapiens, UniProt Q07869); test: Ligand activity for PPAR α (PPRE luciferase reporter in COS-7 cells); type: cell-based; conditions: 10 μM, 24 hours, FIG. 3; for luciferase activity, PPAR α expression vector not introduced (−) / luciferase activity, PPAR α expression vector introduced (+): firefly luciferase standardized by renilla luciferase; for luciferase activity, PPAR α expression vector introduced (+): RXR α + PPAR α + PPRE reporter
T1 construct: expressed in transfected cells; host or cells: COS-7 (monkey kidney)
T1 sequence (Q07869 1-468): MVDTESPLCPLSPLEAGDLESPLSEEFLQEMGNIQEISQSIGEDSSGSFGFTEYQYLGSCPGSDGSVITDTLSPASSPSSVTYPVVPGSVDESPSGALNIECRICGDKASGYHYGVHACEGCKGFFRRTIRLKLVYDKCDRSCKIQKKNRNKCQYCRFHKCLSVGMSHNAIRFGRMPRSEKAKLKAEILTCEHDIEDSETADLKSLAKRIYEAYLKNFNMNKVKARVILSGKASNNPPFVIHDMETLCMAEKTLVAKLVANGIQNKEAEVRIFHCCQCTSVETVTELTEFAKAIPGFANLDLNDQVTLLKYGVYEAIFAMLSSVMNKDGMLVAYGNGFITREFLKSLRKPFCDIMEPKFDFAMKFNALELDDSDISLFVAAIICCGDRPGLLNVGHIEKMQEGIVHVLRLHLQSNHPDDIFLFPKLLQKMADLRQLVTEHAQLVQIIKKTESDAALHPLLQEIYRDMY
T1 sequence (P19793 1-462 partner): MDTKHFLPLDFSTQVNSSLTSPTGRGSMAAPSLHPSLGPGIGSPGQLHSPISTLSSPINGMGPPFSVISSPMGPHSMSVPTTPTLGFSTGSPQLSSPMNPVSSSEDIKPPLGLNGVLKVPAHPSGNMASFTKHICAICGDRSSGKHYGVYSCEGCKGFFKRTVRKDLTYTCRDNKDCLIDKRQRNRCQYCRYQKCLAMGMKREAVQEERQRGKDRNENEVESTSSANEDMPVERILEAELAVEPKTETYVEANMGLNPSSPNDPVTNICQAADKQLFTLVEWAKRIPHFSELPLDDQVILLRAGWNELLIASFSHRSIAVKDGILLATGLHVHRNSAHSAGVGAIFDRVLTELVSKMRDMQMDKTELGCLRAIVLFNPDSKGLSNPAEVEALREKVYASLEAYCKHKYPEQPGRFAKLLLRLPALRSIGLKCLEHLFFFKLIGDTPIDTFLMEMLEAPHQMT
Method: COS-7 cells, a cell line derived from monkey kidney, were cultured at 37° C. in DMEM medium containing 10% fetal calf serum in the presence of 5% CO2. Then, expression vectors of RXR α (retinoic acid X receptor α) and PPAR α, and a reporter vector incorporated with PPRE (peroxisome proliferator-responsive element) as a PPAR-responsive element were cotransfected into the cells, and the cells were cultured for 24 hours. In order to examine the effect of NIK-333, a solution of NIK-333 or Wy-14643(selective agonist of PPAR α) in ethanol was added at a final concentration of 10 μM. After cultivation for 24 hours, the activity of firefly luciferase was measured. The measured values were represented as values standardized by using the renilla luciferase activity.

hepatoma = conditions: clinical, cited from earlier work

SMILES | expression of PPAR α mRNA (PPAR α mRNA) | expression of PPAR γ1 mRNA (PPAR γ1 mRNA) | expression of PPAR γ2 mRNA (PPAR γ2 mRNA) | increasing action of ligand activity compared with Wy-14643 (PPAR α) | luciferase activity, PPAR α expression vector not introduced (−) (PPAR α) | luciferase activity, PPAR α expression vector introduced (+) (PPAR α) | recurrence of hepatoma after radical treatment (hepatoma; long-term administration for one-year) | liver function failure or other adverse effect during the administration (hepatoma; long-term administration)
CC(C)=CCC/C(C)=C/CC/C(C)=C/C=C/C(C)=C/C(=O)O [NIK-333, (2E,4E,6E,10E)-3,7,11,15-Tetramethyl-2,4,6,10,14-hexadecapentaenoic acid] | observed from 0.5 hour after the addition | also observed from 0.5 hour after the addition | not observed | almost equivalent to the action of Wy-14643 | failed to increase the luciferase activity | increased the luciferase activity | significantly inhibited recurrence of hepatoma | almost no liver function failure or almost no other adverse effect
Cc1cccc(Nc2cc(Cl)nc(SCC(=O)O)n2)c1C [Wy-14643, reference compound] |  |  |  |  | failed to increase the luciferase activity | increased the luciferase activity |  | 
